The values below are quoted from earlier work in patent US9365837B2, “Peptide inhibitors of protein kinase C” (The Board of Trustees of the Leland Stanford Junior …, priority 2002, dated 2016).

This series deals with Sprague-Dawley rats. The following applies: previously identified active in the assay.

As for “EAIVKQ (fragment derived from SEQ ID NO32) [SEQ ID NO:37, positive control εPKC antagonist, excluded from the peptides of the invention]”, the “activity in the capsaicin assay (positive control)” value was “active”.
